Results on two compounds are retold here after PMC5953424 (Nature chemical biology, 2014).

Structures are written as SMILES.

One data set concerns the target T1, PME1 (Homo sapiens, UniProt Q9Y570).
T1 sequence (Q9Y570 1-386): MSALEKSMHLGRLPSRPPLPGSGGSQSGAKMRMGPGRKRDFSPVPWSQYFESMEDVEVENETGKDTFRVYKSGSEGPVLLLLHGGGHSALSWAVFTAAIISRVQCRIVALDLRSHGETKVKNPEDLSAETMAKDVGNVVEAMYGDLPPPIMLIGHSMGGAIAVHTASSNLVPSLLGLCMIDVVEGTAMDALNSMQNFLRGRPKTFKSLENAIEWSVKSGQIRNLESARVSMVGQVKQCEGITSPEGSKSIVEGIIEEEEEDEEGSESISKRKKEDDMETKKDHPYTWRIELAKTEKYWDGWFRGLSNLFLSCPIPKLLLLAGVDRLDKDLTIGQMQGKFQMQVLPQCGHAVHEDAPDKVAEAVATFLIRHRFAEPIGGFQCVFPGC
Kind of data set: EnPlex assay. The data set is classed as biochemical. Particulars: FP-biotin 1 μM, <5 = >50% inhibition at lowest dose 5 nM.

Data set [1] is described as follows: Oral glucose tolerance test. The data set is classed as in vivo, C57BL/6 mice. Particulars: mice, oral gavage 1 h before dextrose 5 g/kg; listed as ARI-2243.
The next data set in a line: Adverse effects in mice. The data set is classed as in vivo.

With `COC(=O)N1C(=O)[C@](c2ccccc2)(C2CCCC2)N1C(=O)OC` [ABL127], the IC50 (usually the midpoint of a concentration-inhibition curve) at PME1 was 12 nM.

Take `CC(N)C(=S)N1CCCC1B(O)O` (stereo not drawn) [Compound 24, Ala-boroPro thioxoamide]: in data set [1], the “Anti-hyperglycemic activity in oral glucose tolerance test” value is “highly effective and essentially equal anti-hyperglycemic glycemic activity”. Moreover, in the data set “Adverse effects in mice”, the “Adverse effects in mice” value is “no significant adverse effects”.
